Here are results for 20 molecules from PubChem BioAssay (NCI).

Some test systems named below: HT29 colon; CCRF-CEM leukemia; OVCAR-8 ovarian; HOP-62 NSCLC; BT-549 breast; NCI-H226 lung; IGROV1 ovarian; HS 578T breast; K-562 leukemia; EKVX NSCLC.
Common to all, as to assay: inhibition of tumour cell growth, NCI panel, 48 h

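Test compounds were applied to cells in 96-well plates for 48 hours at 5 doses. GI50 = concentration required for 50% inhibition of growth. The concentration for full growth arrest is given as TGI.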 Bounds are passed on as bounds.

Consider `COc1cc(/C=C2/Oc3c(OC)cccc3C2=O)ccc1O`, for which the TGI in the test with HT29 colon, in the test on CCRF-CEM leukemia, in the test with OVCAR-8 ovarian, in the test with HOP-62 NSCLC, with BT-549 breast and in the test on NCI-H226 lung was more than 100 µM each time. Besides, the TGI in the test with IGROV1 ovarian, with HS 578T breast, in the test on K-562 leukemia and with EKVX NSCLC was more than 100 µM in each case.

Consider `CCN(CC)CCNc1ccc([N+](=O)[O-])c2sc3cc(Cl)ccc3c(=O)c12`, for which the GI50 in the test with HT29 colon was 1.7 µM; with CCRF-CEM leukemia it was 3.17 µM; in the test with HOP-62 NSCLC, 2.7 µM; in the test with BT-549 breast, 17.7 µM; in the test on IGROV1 ovarian, 2.05 µM; in the test on HS 578T breast, 4.41 µM. The GI50 with EKVX NSCLC is 10.7 µM. For the same molecule, the TGI with HT29 colon was more than 100 µM; in the test on CCRF-CEM leukemia, more than 100 µM; in the test with HOP-62 NSCLC, more than 100 µM; with BT-549 breast, more than 100 µM; in the test with IGROV1 ovarian it was 5.23 µM; with HS 578T breast, 37.1 µM. Besides, the TGI with EKVX NSCLC was more than 100 µM.

Take `NC(Cc1ccccc1CP(=O)(O)O)C(=O)O` (configuration not stated): the TGI with HT29 colon, in the test on CCRF-CEM leukemia, in the test on OVCAR-8 ovarian, in the test with BT-549 breast, with IGROV1 ovarian and with HS 578T breast was more than 100 µM in each case. Moreover, the TGI with K-562 leukemia and with EKVX NSCLC was more than 100 µM each time.

With `COc1ccc(CC[N+]2(C)COc3cc4oc(=O)cc(C)c4cc3C2)cc1OC` (configuration not stated), the TGI in the test on HT29 colon, in the test with CCRF-CEM leukemia, in the test with OVCAR-8 ovarian, with HOP-62 NSCLC, with BT-549 breast and in the test with NCI-H226 lung was more than 100 µM in each case. Moreover, the TGI in the test on IGROV1 ovarian, in the test on HS 578T breast, in the test with K-562 leukemia and in the test on EKVX NSCLC was more than 100 µM each time.

As for `C(=C\c1c2oc(-c3ccccc3)cc(-c3ccccc3)c-2c2ccccc12)/C=C1\c2ccccc2-c2c(-c3ccccc3)cc(-c3ccccc3)[o+]c21`, the TGI in the test on HT29 colon, in the test on CCRF-CEM leukemia, in the test on OVCAR-8 ovarian, in the test on HOP-62 NSCLC, with NCI-H226 lung and with IGROV1 ovarian was more than 100 µM each time. Also, the TGI in the test on K-562 leukemia and in the test with EKVX NSCLC was more than 100 µM throughout.

As to `Cc1ccc(NCCN(C)C)c2c(=O)c3cc(O)ccc3sc12`, the TGI in the test on HT29 colon is 8.2 µM; in the test with CCRF-CEM leukemia it was 5.7 µM; with OVCAR-8 ovarian, 6.84 µM; in the test with HOP-62 NSCLC, 6.21 µM; in the test on BT-549 breast, 20.3 µM; in the test with NCI-H226 lung, 15.2 µM. Further, the TGI in the test on IGROV1 ovarian worked out at 17.2 µM; in the test with HS 578T breast, 3.87 µM; in the test on K-562 leukemia, 11.7 µM; in the test with EKVX NSCLC, 27.6 µM.

With `Cc1ncc(CSC(=N)N)n1Cc1ccccc1`, the TGI in the test on HT29 colon, with OVCAR-8 ovarian, in the test with HOP-62 NSCLC, in the test with BT-549 breast, in the test on NCI-H226 lung and in the test with IGROV1 ovarian was more than 100 µM in each case. Further, the TGI in the test with HS 578T breast, in the test with K-562 leukemia and with EKVX NSCLC was more than 100 µM in each case.

Regarding `CCOC(=O)c1csc(NC(=O)C(C)N2CCOCC2)n1` (configuration not stated), the TGI in the test on HT29 colon, in the test with CCRF-CEM leukemia, in the test with OVCAR-8 ovarian, in the test with HOP-62 NSCLC, with IGROV1 ovarian and with K-562 leukemia was more than 100 µM throughout. Further, in the test on EKVX NSCLC, the TGI was more than 100 µM.

On to `O=S(=O)(O)c1cc(O)c(N=Nc2ccc3ccccc3c2O)c2ccccc12`, for which the TGI in the test with HT29 colon is 72.3 µM; in the test on CCRF-CEM leukemia it was more than 100 µM; in the test with HOP-62 NSCLC, more than 100 µM; in the test on BT-549 breast, more than 100 µM; in the test on NCI-H226 lung, 49.5 µM; in the test with IGROV1 ovarian, 32.3 µM. The values for the TGI with HS 578T breast, in the test with K-562 leukemia and with EKVX NSCLC were more than 100 µM, 74.6 µM and more than 100 µM, respectively.

Regarding `c1cncc([O][Ge]([O]c2cccnc2)([O]c2cccnc2)[O]c2cccnc2)c1`, the GI50 in the test with HT29 colon, in the test with OVCAR-8 ovarian, in the test on NCI-H226 lung, in the test on IGROV1 ovarian and in the test with EKVX NSCLC was more than 100 µM each time. Moreover, the TGI in the test with HT29 colon, with OVCAR-8 ovarian, in the test on NCI-H226 lung, in the test with IGROV1 ovarian and with EKVX NSCLC was more than 100 µM in each case.

On to `CC(C)=CC(=O)c1c(C(=O)O)nc2ccccc2[n+]1[O-]`, for which the TGI in the test on HT29 colon, with CCRF-CEM leukemia, in the test with HOP-62 NSCLC, with NCI-H226 lung, in the test with IGROV1 ovarian and in the test with K-562 leukemia was more than 100 µM throughout. The molecule also displayed a TGI with EKVX NSCLC of more than 100 µM.

Regarding `CC(C)=CCC/C(C)=C/C=C/C(C)=C/C1C[C@@]2(C(O)O1)[C@H](CCCO)/C(=C(/C)C=O)CC[C@]2(C)O` (some centres not stated), the TGI was 33.3 µM in the test on HT29 colon; 51 µM with OVCAR-8 ovarian; 40.9 µM in the test with NCI-H226 lung; 40.6 µM with IGROV1 ovarian; 28.4 µM in the test with K-562 leukemia; 25.1 µM in the test on EKVX NSCLC.

Turning to `CC(=O)[C@]1(O)Cc2c(O)c3c(c(O)c2[C@@H](OC2CC(N)C(O)C(C)O2)C1)C(=O)c1c(OCc2ccccc2)cccc1C3=O` (some centres not stated), the TGI is 14.7 µM with HT29 colon; 1.45 µM with CCRF-CEM leukemia; 7.8 µM with OVCAR-8 ovarian; 16 µM with HOP-62 NSCLC; 21.2 µM with BT-549 breast; 5.74 µM with NCI-H226 lung. The TGI in the test with IGROV1 ovarian came to 33.8 µM; in the test on HS 578T breast it was 2.29 µM; in the test with K-562 leukemia it was 2.68 µM; with EKVX NSCLC, 11.1 µM.

On to `O=C(O)/C=C/c1ccncc1`, for which the TGI was more than 100 µM in the test on HT29 colon; more than 100 µM in the test with CCRF-CEM leukemia; more than 100 µM with OVCAR-8 ovarian; 0.746 µM in the test with HOP-62 NSCLC; more than 100 µM in the test with NCI-H226 lung; more than 100 µM in the test with IGROV1 ovarian. The TGI in the test with K-562 leukemia and in the test on EKVX NSCLC was more than 100 µM in each case.

On to `COc1cc2c(cc1OCCCOc1ccc(-c3cc4ccccc4c4ccccc34)cc1)N=C[C@@H]1CCCN1C2=O`, for which the GI50 in the test on HT29 colon was 0.899 µM; with CCRF-CEM leukemia, 0.237 µM; in the test with OVCAR-8 ovarian, 0.425 µM; with BT-549 breast, 0.278 µM; in the test on NCI-H226 lung it was 1.28 µM; in the test with IGROV1 ovarian, 0.122 µM. In addition, the GI50 in the test with HS 578T breast is 0.645 µM; in the test with EKVX NSCLC, 1.1 µM. For the same molecule, the TGI turned out to be 2.11 µM with HT29 colon; 1.98 µM in the test on OVCAR-8 ovarian; 2.05 µM with BT-549 breast; 2.73 µM in the test on NCI-H226 lung; 0.288 µM with IGROV1 ovarian; 3.11 µM in the test on HS 578T breast. Further, the TGI was more than 100 µM with K-562 leukemia and 2.3 µM in the test with EKVX NSCLC.

As for `CC1(Cl)CC(C)(/C=C/Cl)C(Cl)CC1Cl` (configuration not stated), the TGI in the test on HT29 colon stood at 27.3 µM; in the test on CCRF-CEM leukemia, 59 µM; in the test on OVCAR-8 ovarian, 31.3 µM; with HOP-62 NSCLC it was 34.7 µM; with IGROV1 ovarian, 30.4 µM; in the test with K-562 leukemia, 57 µM. The molecule further had a TGI with EKVX NSCLC of 26.4 µM.

As for `C[n+]1c(-c2ccc(/C=N/NC(=O)C(=O)N/N=C/c3ccc(-c4cn5ccccc5[n+]4C)cc3)cc2)cn2ccccc21`, the TGI in the test on HT29 colon, with CCRF-CEM leukemia, with OVCAR-8 ovarian, in the test with HOP-62 NSCLC, in the test with BT-549 breast and with NCI-H226 lung was more than 100 µM each time. The TGI in the test with IGROV1 ovarian, in the test on HS 578T breast, in the test on K-562 leukemia and in the test with EKVX NSCLC was more than 100 µM throughout.

As to `Cc1ccc(NC(=O)C(=O)Cc2cccc[n+]2[O-])cc1C`, the TGI with HT29 colon, in the test on CCRF-CEM leukemia, in the test with OVCAR-8 ovarian, with HOP-62 NSCLC, in the test on NCI-H226 lung and with IGROV1 ovarian was more than 100 µM throughout. The TGI with K-562 leukemia and with EKVX NSCLC was more than 100 µM each time.

As for `C/C(=N\NC(=S)N1CCOCC1)c1nc2ncccc2[nH]1`, the TGI in the test on HT29 colon was more than 100 µM; in the test with CCRF-CEM leukemia, more than 100 µM; with OVCAR-8 ovarian, 80.2 µM; with HOP-62 NSCLC, 96 µM; in the test on BT-549 breast it was more than 100 µM; with NCI-H226 lung it was more than 100 µM. For the same molecule, the TGI in the test on IGROV1 ovarian, in the test with HS 578T breast, in the test on K-562 leukemia and with EKVX NSCLC was more than 100 µM each time.

`CC1CCCN1CCCOC(=O)c1ccc(OC2C=CCCC2)cc1` (configuration not stated): the TGI is 60.4 µM with HT29 colon; 66.7 µM in the test with CCRF-CEM leukemia; more than 100 µM in the test with OVCAR-8 ovarian; 42.1 µM with HOP-62 NSCLC; more than 100 µM in the test on BT-549 breast; 86.4 µM in the test with NCI-H226 lung. The TGI with IGROV1 ovarian was 58.4 µM; in the test with HS 578T breast it was 71.8 µM; in the test on K-562 leukemia, 38.9 µM; in the test with EKVX NSCLC, more than 100 µM.
